What was measured:
[1] = Open-label multiple-dose escalation pharmacokinetic study in fasted or fed healthy subjects (Example 7 B); type: in vivo, human
Protocol: B. A second open-label, non-randomized pharmacokinetic study was conducted in healthy subjects. Fasted (cohort 1; n=19) or fed state (cohort 2, n=18) subjects received a modified-release tablet formulation of Compound 1 in a dose escalation sequence over 25 days ([…], depending upon individual subject tolerability, […]).
Two cohorts were enrolled to ensure data in 12 evaluable subjects per cohort. […]

[2] = test system: PAH patients; assay: 22-week randomized, double-blind, placebo-controlled study (Example 8); type: in vivo, human
Protocol: A 22-week randomized, double-blind, placebo-controlled study with a dose titration period of up to 9 weeks was conducted. Sixty-one patients were randomized 2:1 Compound 1 to placebo. Right Heart Catheterization (RHC) measurements were obtained prior to study Day 1 of the dose titration period and at Week 22. The following values were obtained and recorded: pulmonary artery pressure (PAP) (systolic, diastolic, and mean), heart rate (HR), right atrial pressure (RAP), pulmonary capillary wedge pressure (PCWP) right ventricular pressure (RVP) and cardiac output (CO), pulmonary vascular resistance (PVR), arterial and mixed venous oxygen saturation […] (if applicable). Systemic vascular resistance (SVR) was estimated from blood pressure measurements. The 6-minute walk test (6MWD) was conducted according to the modified guidelines issued by the American Thoracic Society. See Am J Respir Crit Care Med 166:111-117, 2002.
Primary efficacy endpoints for the study were: a) change from baseline in PVR after 22 weeks of treatment, and b) change from baseline in 6MWD after 22 weeks of treatment.
Compound 1 was administered as a capsule in 0.01, 0.02, 0.03, 0.04, and 0.10 mg dose strengths. The formulation was supplied as a liquid-filled, size 4, hard-gelatin capsule containing Compound 1, polyoxyl 40 hydrogenated castor oil (Kolliphor® RH40) NF, butylated hydroxytoluene (BHT)NF, and colloidal silicon dioxide NF.
The starting dose of Compound 1 was 0.01 mg twice daily. The dose of Compound 1 was titrated according to patient tolerability. If the initial dose was tolerated (0.01 mg twice daily), then the dose was increased once a week in the following fashion: 0.02 mg twice daily, 0.03 mg twice daily, 0.04 mg twice daily, 0.06 mg twice daily, 0.08 mg, 0.1 mg twice daily, 0.2 mg twice daily and 0.3 mg twice daily. The dose was optionally escalated to a possible maximum total daily dose of 0.6 mg (0.3 mg twice daily), pending tolerability. […] Compound 1 daily maintenance doses were titrated as high as 0.6 mg, and the most common dose was 0.4 mg.
Subjects received concomitant oral disease-specific PAH therapy only if the dose remained stable for at least 3 months prior to the start of screening. This therapy consisted of the following: ERA and/or an agent acting on the NO pathway including the following: a PDE-5 inhibitor and a sGC stimulator. Subjects were instructed to continue the same dose and regimen of these medications for the duration of the study.

[3] = modified-release tablet once daily

In the case of `O=C(O)COC[C@H]1CC[C@H](COC(=O)N(c2ccccc2)c2ccc(Cl)cc2)CC1` [Compound 1, 2-(((1r,4r)-4-(((4-chlorophenyl)(phenyl)carbamoyloxy)methyl)cyclohexyl)methoxy)acetic acid], the “accumulation index (AUC(0-24))” value ([1]; 5 days of dosing at 0.60 mg, both fed and fasted state) is reported as “approximately 2.1 fold”, the “exposure in fed vs fasted state” value ([1]; after single administration and at steady state) is reported as “similar” and the “differences in AUC(0-24) at steady state, female vs male subjects” value [1, 3] is reported as “did not indicate a significant increase”. The “increase of Cmax at steady state in female vs male subjects” value [1, 3] was “greater than 42%”, the “mean plasma exposure measures in females compared to males” value [1, 3] was “Somewhat higher” and the “plasma exposure measures vs dose” value ([1]; modified-release tablet once daily, 0.06 to 0.3 mg) was “Dose-dependent”. For the same compound, the peak-trough fluctuation ([1]; modified-release tablet once daily, across dose levels) was “low”, the “effect of food on plasma exposure” value ([1]; modified-release tablet once daily, fed vs fasted, across dose levels) was “little effect of food” and the “Tmax in the fed state” value ([1]; modified-release tablet, fed vs fasted) was “delayed”. The “correlation between plasma levels and improvements in PVR” value ([2]; 22-week study period, p=0.004 (FIG. 17)) was “significant correlation”, the “increase of least-squares mean 6MWD” value ([2]; 22 weeks, not significantly different from placebo) was 36.2 m and the adverse events ([2]; PAH patients, 22-week study) was “consistent with other prostacyclin treatments for the management of PAH”. For the same compound, the “mean reduction in BNP from baseline to Week 22 versus placebo” value ([2]; difference not significantly different) was “numerically greater”, the “mean pre-dose and 4 hours post-dose plasma concentrations” value ([2]; during the 9-week dose titration period (FIG. 15)) was “continued to rise” and the “decrease of PVR from baseline to Week 22” value ([2]; immediate-release capsule twice daily, titrated up to 0.6 mg total daily dose, p=0.02 vs placebo) was 163.9 dyn·s·cm^−5. For the same compound, the “correlation between PVR percentage change and dose” value ([2]; in vivo) was “no significant correlation”, the “correlation between plasma levels and improvements in 6MWD” value ([2]; p=0.0037 (FIG. 18)) was “significant correlation” and the “correlation between plasma levels and improvements in BNP” value ([2]; p=0.047 (FIG. 19)) was “significant correlation”. For the same compound, the “mean steady-state pre-dose and 4-hours post-dose plasma concentrations” value ([2]; throughout the 13-week maintenance period (FIG. 15)) was “maintained”.

From patent US12433865B2, “Compositions comprising PGI2-receptor agonists and processes for the preparation thereof” (Arena Pharmaceuticals, Inc., priority 2018, dated 2025)
